Results: ChEMBL document CHEMBL3885861, “Open TG-GATES”

Species: Rattus norvegicus
Experiment: Open TG-GATES - Regimen: Daily Repeat
Type: toxicity, organism-based, Sprague-Dawley
Parameters: regimen Daily Repeat, gender Male, age 6 weeks
Conditions: in vivo, iv, route intravenous injection; for APTT / Bas / Eos / Fbg / Hb / Ht / Lym / MCH / MCHC / MCV / Mono / Neu / PT / Plat / RBC / Ret / WBC: tissue Blood; for KIDNEY_L / KIDNEY_R / KIDNEY_TOTAL: tissue Kidney; for LIVER: tissue Liver; for A/G / ALP / ALT / AST / BUN / CRE / Ca / Cl / DBIL / GLC / IP / K / LDH / Na / PL / RALB / TBIL / TC / TG / TP / gamma-GTP: tissue Plasma
[1] = 0 mg/kg, 72 h, dose level Control, time 3 day
[2] = 0 mg/kg, […], dose level Control, time 7 day
[3] = 0 mg/kg, […], dose level Control, time 14 day
[4] = 0 mg/kg, […], dose level Control, time 28 day
[5] = 4 mg/kg, 72 h, dose level Low, time 3 day
[6] = 4 mg/kg, […], dose level Low, time 7 day
[7] = 4 mg/kg, […], dose level Low, time 14 day
[8] = 4 mg/kg, […], dose level Low, time 28 day

CN(C)c1ncnc2c1ncn2[C@@H]1O[C@H](CO)[C@@H](N)[C@H]1O [PUROMYCIN AMINONUCLEOSIDE]
TERMINAL_BW [1]: 230.5 g
APTT [1]: 22.1 s
Bas [1]: 0%
Eos [1]: 1%
Fbg [1]: 290.4 mg/dL
Hb [1]: 12.9 g/dL
Ht [1]: 37.6%
Lym [1]: 76.8%
MCH [1]: 21.1 pg
MCHC [1]: 34.2%
MCV [1]: 61.7 fL
Mono [1]: 2.6%
Neu [1]: 18.8%
PT [1]: 16.1 s
Plat [1]: 127.4 x10_4/uL
RBC [1]: 610 x10_4/ul
Ret [1]: 5.7%
WBC [1]: 113.8 x10_2/uL
KIDNEY_L [1]: 1 g
KIDNEY_R [1]: 1 g
KIDNEY_TOTAL [1]: 2 g
LIVER [1]: 10.3 g
A/G [1]: 1.3
ALP [1]: 1374.2 IU/L
ALT [1]: 40.6 IU/L
AST [1]: 74 IU/L
BUN [1]: 17.2 mg/dL
CRE [1]: 0.2 mg/dL
Ca [1]: 10.9 mg/dL
Cl [1]: 106.6 meq/L
DBIL [1]: 0 mg/dL
GLC [1]: 195.8 mg/dL
IP [1]: 6.8 mg/dL
K [1]: 4.7 meq/L
LDH [1]: 183.8 IU/L
Na [1]: 142.2 meq/L
PL [1]: 141.6 mg/dL
RALB [1]: 3.1 g/dL
TBIL [1]: 0.008 mg/dL
TC [1]: 73.2 mg/dL
TG [1]: 95.2 mg/dL
TP [1]: 5.4 g/dL
gamma-GTP [1]: 1.8 IU/L
TERMINAL_BW [2]: 262.2 g
TERMINAL_BW [3]: 322.5 g
TERMINAL_BW [4]: 396.1 g
APTT [2]: 22.5 s
Bas [2]: 0%
Eos [2]: 1%
Fbg [2]: 274.8 mg/dL
Hb [2]: 13.7 g/dL
Ht [2]: 39.4%
Lym [2]: 80.4%
MCH [2]: 21.3 pg
MCHC [2]: 34.9%
MCV [2]: 61 fL
Mono [2]: 2%
Neu [2]: 15.6%
PT [2]: 16 s
Plat [2]: 111 x10_4/uL
RBC [2]: 645.6 x10_4/ul
Ret [2]: 4.8%
WBC [2]: 97.9 x10_2/uL
APTT [3]: 22 s
Bas [3]: 0%
Eos [3]: 0.8%
Fbg [3]: 293.8 mg/dL
Hb [3]: 14 g/dL
Ht [3]: 39.5%
Lym [3]: 79.4%
MCH [3]: 20.6 pg
MCHC [3]: 35.5%
MCV [3]: 58.3 fL
Mono [3]: 3.2%
Neu [3]: 15%
PT [3]: 16.3 s
Plat [3]: 109.5 x10_4/uL
RBC [3]: 679 x10_4/ul
Ret [3]: 3.4%
WBC [3]: 120 x10_2/uL
APTT [4]: 25.7 s
Bas [4]: 0%
Eos [4]: 1%
Fbg [4]: 299.6 mg/dL
Hb [4]: 15.2 g/dL
Ht [4]: 42.3%
Lym [4]: 74.6%
MCH [4]: 19.6 pg
MCHC [4]: 35.8%
MCV [4]: 54.8 fL
Mono [4]: 3.4%
Neu [4]: 19.6%
PT [4]: 16.3 s
Plat [4]: 105.3 x10_4/uL
RBC [4]: 772.2 x10_4/ul
Ret [4]: 2.2%
WBC [4]: 111.8 x10_2/uL
KIDNEY_L [2]: 1 g
KIDNEY_R [2]: 1.1 g
KIDNEY_TOTAL [2]: 2.1 g
KIDNEY_L [3]: 1.2 g
KIDNEY_R [3]: 1.2 g
KIDNEY_TOTAL [3]: 2.4 g
KIDNEY_L [4]: 1.3 g
KIDNEY_R [4]: 1.3 g
KIDNEY_TOTAL [4]: 2.7 g
LIVER [2]: 12.2 g
LIVER [3]: 13.6 g
LIVER [4]: 14.9 g
A/G [2]: 1.2
ALP [2]: 1257.2 IU/L
ALT [2]: 35.4 IU/L
AST [2]: 63 IU/L
BUN [2]: 17.6 mg/dL
CRE [2]: 0.2 mg/dL
Ca [2]: 10.7 mg/dL
Cl [2]: 105.6 meq/L
DBIL [2]: 0 mg/dL
GLC [2]: 210.6 mg/dL
IP [2]: 7.3 mg/dL
K [2]: 4 meq/L
LDH [2]: 167.4 IU/L
Na [2]: 142 meq/L
PL [2]: 141.6 mg/dL
RALB [2]: 3 g/dL
TBIL [2]: 0.018 mg/dL
TC [2]: 67.2 mg/dL
TG [2]: 108.8 mg/dL
TP [2]: 5.5 g/dL
gamma-GTP [2]: 1.4 IU/L
A/G [3]: 1.3
ALP [3]: 1494.8 IU/L
ALT [3]: 36.8 IU/L
AST [3]: 69.4 IU/L
BUN [3]: 19.2 mg/dL
CRE [3]: 0.2 mg/dL
Ca [3]: 10.9 mg/dL
Cl [3]: 104.6 meq/L
DBIL [3]: 0 mg/dL
GLC [3]: 204.2 mg/dL
IP [3]: 7.2 mg/dL
K [3]: 4.3 meq/L
LDH [3]: 176.8 IU/L
Na [3]: 141.6 meq/L
PL [3]: 144.4 mg/dL
RALB [3]: 3.1 g/dL
TBIL [3]: 0.006 mg/dL
TC [3]: 65.8 mg/dL
TG [3]: 119.8 mg/dL
TP [3]: 5.6 g/dL
gamma-GTP [3]: 2 IU/L
A/G [4]: 1
ALP [4]: 1115.6 IU/L
ALT [4]: 31 IU/L
AST [4]: 60.5 IU/L
BUN [4]: 18.6 mg/dL
CRE [4]: 0.2 mg/dL
Ca [4]: 10.4 mg/dL
Cl [4]: 104.2 meq/L
DBIL [4]: 0 mg/dL
GLC [4]: 184.8 mg/dL
IP [4]: 6.1 mg/dL
K [4]: 4.2 meq/L
LDH [4]: 174 IU/L
Na [4]: 142.6 meq/L
PL [4]: 133.4 mg/dL
RALB [4]: 3.1 g/dL
TBIL [4]: 0.01 mg/dL
TC [4]: 68.2 mg/dL
TG [4]: 101.2 mg/dL
TP [4]: 6.1 g/dL
gamma-GTP [4]: 2 IU/L
TERMINAL_BW [5]: 232.9 g
APTT [5]: 20.8 s
Bas [5]: 0%
Eos [5]: 1%
Fbg [5]: 318.6 mg/dL
Hb [5]: 13.1 g/dL
Ht [5]: 38.3%
Lym [5]: 78.6%
MCH [5]: 21.3 pg
MCHC [5]: 34.3%
MCV [5]: 62.1 fL
Mono [5]: 3%
Neu [5]: 16.2%
PT [5]: 15.9 s
Plat [5]: 136.9 x10_4/uL
RBC [5]: 616 x10_4/ul
Ret [5]: 5.3%
WBC [5]: 98.6 x10_2/uL
KIDNEY_L [5]: 1 g
KIDNEY_R [5]: 1 g
KIDNEY_TOTAL [5]: 1.9 g
LIVER [5]: 10.2 g
A/G [5]: 1.3
ALP [5]: 1424.8 IU/L
ALT [5]: 40.8 IU/L
AST [5]: 73.4 IU/L
BUN [5]: 17.4 mg/dL
CRE [5]: 0.2 mg/dL
Ca [5]: 11.1 mg/dL
Cl [5]: 104.2 meq/L
DBIL [5]: 0 mg/dL
GLC [5]: 189.4 mg/dL
IP [5]: 7.6 mg/dL
K [5]: 4.4 meq/L
LDH [5]: 200.6 IU/L
Na [5]: 141.6 meq/L
PL [5]: 149.2 mg/dL
RALB [5]: 3 g/dL
TBIL [5]: 0.02 mg/dL
TC [5]: 76 mg/dL
TG [5]: 102.2 mg/dL
TP [5]: 5.5 g/dL
gamma-GTP [5]: 1.2 IU/L
TERMINAL_BW [6]: 256.3 g
TERMINAL_BW [7]: 310.3 g
TERMINAL_BW [8]: 371.4 g
APTT [6]: 21 s
Bas [6]: 0%
Eos [6]: 1.4%
Fbg [6]: 282.8 mg/dL
Hb [6]: 13.4 g/dL
Ht [6]: 38.8%
Lym [6]: 76.4%
MCH [6]: 20.5 pg
MCHC [6]: 34.4%
MCV [6]: 59.4 fL
Mono [6]: 2%
Neu [6]: 19.2%
PT [6]: 15.9 s
Plat [6]: 118.6 x10_4/uL
RBC [6]: 654.8 x10_4/ul
Ret [6]: 3.7%
WBC [6]: 112.4 x10_2/uL
APTT [7]: 23.5 s
Bas [7]: 0%
Eos [7]: 0.8%
Fbg [7]: 303.4 mg/dL
Hb [7]: 13.6 g/dL
Ht [7]: 38.9%
Lym [7]: 77.8%
MCH [7]: 20.7 pg
MCHC [7]: 35%
MCV [7]: 59.1 fL
Mono [7]: 2.4%
Neu [7]: 18%
PT [7]: 16.3 s
Plat [7]: 133.5 x10_4/uL
RBC [7]: 658 x10_4/ul
Ret [7]: 4.7%
WBC [7]: 105.4 x10_2/uL
APTT [8]: 23.1 s
Bas [8]: 0%
Eos [8]: 1.6%
Fbg [8]: 538.4 mg/dL
Hb [8]: 14.5 g/dL
Ht [8]: 40%
Lym [8]: 72.8%
MCH [8]: 20.2 pg
MCHC [8]: 36.3%
MCV [8]: 55.6 fL
Mono [8]: 3.2%
Neu [8]: 21.8%
PT [8]: 14.6 s
Plat [8]: 134.3 x10_4/uL
RBC [8]: 719.6 x10_4/ul
Ret [8]: 2.5%
WBC [8]: 156.1 x10_2/uL
KIDNEY_L [6]: 1 g
KIDNEY_R [6]: 1.1 g
KIDNEY_TOTAL [6]: 2.1 g
KIDNEY_L [7]: 1.2 g
KIDNEY_R [7]: 1.3 g
KIDNEY_TOTAL [7]: 2.5 g
KIDNEY_L [8]: 1.5 g
KIDNEY_R [8]: 1.4 g
KIDNEY_TOTAL [8]: 2.9 g
LIVER [6]: 11 g
LIVER [7]: 12.6 g
LIVER [8]: 16.8 g
A/G [6]: 1.2
ALP [6]: 1296.4 IU/L
ALT [6]: 37.8 IU/L
AST [6]: 67.8 IU/L
BUN [6]: 17 mg/dL
CRE [6]: 0.2 mg/dL
Ca [6]: 10.6 mg/dL
Cl [6]: 107.2 meq/L
DBIL [6]: 0 mg/dL
GLC [6]: 180.6 mg/dL
IP [6]: 6.7 mg/dL
K [6]: 4.1 meq/L
LDH [6]: 149.6 IU/L
Na [6]: 142.6 meq/L
PL [6]: 139.4 mg/dL
RALB [6]: 3 g/dL
TBIL [6]: 0.014 mg/dL
TC [6]: 73.4 mg/dL
TG [6]: 87.8 mg/dL
TP [6]: 5.5 g/dL
